In patent publication US8183252B2, “Heterocyclic aspartyl protease inhibitors” (Schering Corporation, priority 2007, dated 2012):
Like-named read-outs stand apart in the source and are kept apart here.

Target: T1, human BACE1 (sproBACE1) (Homo sapiens, UniProt P56817)
T1 construct: sBACE1, corresponding to amino acids 1-454; made in house; host or cells: Sf9 insect cells (baculovirus), secreted into the medium
Assay: BACE-1 Peptide Hydrolysis Assay (HTRF)
Format: biochemical
Description: A HindIII/PmeI fragment from pCDNA4-sBACE1myc/His was blunt ended using Klenow and subcloned into the Stu I site of PFASTBACI(A) (Invitrogen). A sBACE1mycHis recombinant bacmid was generated by transposition in DH10Bac cells (GIBCO/BRL). Subsequently, the sBACE1mycHis bacmid construct was transfected into sf9 cells using CellFectin (Invitrogen, San Diego, Calif.) in order to generate recombinant baculovirus. […] Five milliliters of high titer plaque purified sBACEmyc/His virus was used to infect 1 L of logarithmically growing sf9 cells for 72 hours. Intact cells were pelleted by centrifugation at 3000×g for 15 minutes. The supernatant, containing secreted sBACE1, was collected and diluted 50% v/v with 100 mM HEPES, pH 8.0. The diluted medium was loaded onto a Q-sepharose column. The Q-sepharose column was washed with Buffer A (20 mM HEPES, pH 8.0, 50 mM NaCl).
Proteins, were eluted from the Q-sepharose column with Buffer B (20 mM HEPES, pH 8.0, 500 mM NaCl). The protein peaks from the Q-sepharose column were pooled and loaded onto a Ni-NTA agarose column. The Ni-NTA column was then washed with Buffer C (20 mM HEPES, pH 8.0, 500 mM NaCl). Bound proteins were then eluted with Buffer D (Buffer C+250 mM imidazole).
Reactions were initiated by addition of substrate in a 5 μl aliquot resulting in a total volume of 25 μl. After 3 hr at 30° C. reactions were terminated by addition of an equal volume of 2× stop buffer containing 50 mM Tris-HCl pH 8.0, 0.5 M KF, 0.001% Brij-35, 20 μg/ml SA-XL665 (cross-linked allophycocyanin protein coupled to streptavidin; CIS-Bio International, France) (0.5 μg/well). Plates were shaken briefly and spun at 1200×g for 10 seconds to pellet all liquid to the bottom of the plate before the incubation.
Y=Bottom+(Top-Bottom)/(1+10^((LogEC50−X)*Hill Slope)); X is the logarithm of concentration of I, Y is the percent change in ratio and Y starts at bottom and goes to top with a sigmoid shape.

T1 sequence (P56817 22-454): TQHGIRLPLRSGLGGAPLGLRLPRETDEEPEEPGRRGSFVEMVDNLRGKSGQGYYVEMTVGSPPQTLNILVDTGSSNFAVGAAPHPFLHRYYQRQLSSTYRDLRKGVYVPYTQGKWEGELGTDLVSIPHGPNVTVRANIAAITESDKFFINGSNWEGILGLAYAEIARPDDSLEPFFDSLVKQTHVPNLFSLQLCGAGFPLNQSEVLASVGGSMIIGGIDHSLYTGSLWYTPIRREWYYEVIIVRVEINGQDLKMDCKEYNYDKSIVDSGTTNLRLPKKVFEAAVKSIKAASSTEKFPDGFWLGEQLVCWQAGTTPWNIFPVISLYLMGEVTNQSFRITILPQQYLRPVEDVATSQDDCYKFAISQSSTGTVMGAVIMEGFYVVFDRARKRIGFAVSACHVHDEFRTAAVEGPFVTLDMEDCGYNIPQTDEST

Row | Structure (SMILES) | Ki (read-out: BACE-1 Ki) [µM] | Ki [µM]
1 | CN1OCC(C)(c2cccc(-c3cccc(C#N)c3)c2)NC1=N (stereo not shown) | < 5 | 
2 | CC(=O)N1CCC(CN2C(=N)NC(C)(c3cccc(-c4cnn(C)c4)c3)C2=O)CC1 (stereo not shown) |  | < 5
3 | CC(=O)N1CCC(CN2C(=N)NC(C)(c3cccc(-c4cn[nH]c4)c3)C2=O)CC1 (stereo not shown) |  | < 5
4 | CC(=O)N1CCC(CN2C(=N)NC(C)(c3cccc(-c4cccc5[nH]ccc45)c3)C2=O)CC1 (stereo not shown) |  | < 5
5 | COc1ccc(CNc2ccccc2)c(-c2cccc(C3(C)NC(=N)N(CC4CCN(C(C)=O)CC4)C3=O)c2)c1 (stereo not shown) |  | < 5
6 | COc1ccc(C=O)c(-c2cccc(C3(C)NC(=N)N(CC4CCN(C(C)=O)CC4)C3=O)c2)c1 (stereo not shown) |  | < 5
7 | CC(=O)N1CCC(CN2C(=N)NC(C)(c3cccc(-c4ccoc4)c3)C2=O)CC1 (stereo not shown) |  | < 5
8 | CC(=O)N1CCC(CN2C(=N)NC(C)(c3cccc(-c4cccc(O)c4)c3)C2=O)CC1 (stereo not shown) |  | < 5
9 | CC(=O)N1CCC(CN2C(=N)N[C@@](c3cccc(-c4cncc(Br)c4)c3)(C3CC3)C2=O)CC1 | < 5 | 
10 | CC1(c2cccc(-c3cccc(Cl)c3)c2)NC(=N)N(CC2CCN(C(=O)c3ccccc3)C2)C1=O (stereo not shown) | < 5 | 
11 | COCC1CCCN1C(=O)c1cccc(CN2C(=N)NC(C)(c3ccccc3)C2=O)c1 (stereo not shown) | < 5 | 
12 | N=C1NC(c2ccccc2)(c2ccccc2)C(=O)N1CC1CCN(C(=O)Nc2cccc(Cl)c2)CC1 | < 5 | 
13 | C[C@H]1C(=O)N(C)C(=N)N[C@]1(C)c1cc(-c2ccc(F)c(C#N)c2)cs1 | < 5 | 
14 | CN1OCC(C)(c2cc(-c3ccc(F)c(C#N)c3)cs2)NC1=N (stereo not shown) | < 5 | 
15 | CN1C(=N)N[C@](CCc2ccccc2)(C[C@H]2CCC[C@@H](Nc3cccnc3)C2)C1=O | < 5 | 
16 | CN1C(=N)N[C@](C)(C[C@H]2CCC[C@@H](Nc3cnccn3)C2)C1=O | < 5 | 
17 | COc1cncc(-c2cccc(C3(C)NC(=N)N(CC4CC(=O)N(Cc5ccccc5)C4)C3=O)c2)c1 (stereo not shown) | < 5 | 
18 | COc1cncc(-c2cccc(C3(C)NC(=N)N(CC4CC(=O)N(c5ccccc5)C4)C3=O)c2)c1 (stereo not shown) | < 5 | 
19 | N=C1NC(c2ccccc2)(c2ccccc2)C(=O)N1Cc1cccc(NC(=O)Cc2cccs2)c1 | < 5 | 
20 | CN1C(=N)N[C@](CCC2CCCCC2)(C[C@H]2CCC[C@@H](NC(=O)c3cc(Cl)nc(Cl)c3)C2)C1=O | < 5 | 
21 | CN1C(=N)N[C@](C)(c2ccc(-c3cc(Cl)cc(C#N)c3)s2)[C@@H](C2CC2)C1=O | < 5 | 
22 | CN1C(=N)N[C@](C)(c2nc(-c3cccc(C#N)c3)cs2)CC1=O | < 5 | 
23 | CCN1C(=N)N[C@](C)(c2cc(-c3cccc(C#N)c3)cs2)CC1=O | < 5 | 
24 | CC(C)n1cc([C@H]2C(=O)N(C)C(=N)N[C@]2(C)c2cc(-c3cccc(C#N)c3)cs2)cn1 | < 5 | 
25 | CN1C(=N)N[C@](C)(c2cc(-c3cc(C#N)ccc3O)cs2)CC1=O | < 5 | 

Row | Structure (SMILES) | Ki (read-out: BACE-1 Ki) [µM] | Ki [µM]
26 | COc1cc(C#N)cc(-c2csc([C@]3(C)CC(=O)N(C)C(=N)N3)c2)c1 | < 5 | 
27 | CN1C(=N)N[C@](C)(c2cc(-c3cccc(C#N)c3)nn2C)CC1=O | < 5 | 
28 | CN1C(=N)NC(C)(c2cc(-c3cccc(C#N)c3)cs2)C(CC=Cc2ccccc2)C1=O (stereo not shown) | < 5 | 
29 | CC1(c2cccc(-c3cccc(Cl)c3)c2)NC(=N)N(CC2CCN(C(=O)Nc3ccccc3)C2)C1=O (stereo not shown) | < 5 | 
30 | CC1(c2cccc(-c3cccc(Cl)c3)c2)NC(=N)N(CC2CCN(C(=O)CC3CCCCC3)C2)C1=O (stereo not shown) | < 5 | 
31 | CC1(c2cccc(-c3cccc(Cl)c3)c2)NC(=N)N(CC2CCN(C(=O)C3CCCCC3)C2)C1=O (stereo not shown) | < 5 | 
32 | CN1C(=N)N[C@](C)(c2cc(-c3cc(C#N)ccc3Cl)c3sccc3c2)CC1=O | < 5 | 
33 | Cc1cc(-c2cccc(C3(C4CC4)NC(=N)N(C)C3=O)c2)ccn1 (stereo not shown) | < 5 | 
34 | CN1C(=N)NC(c2cc(-c3cccc(CO)c3)cs2)(C2CC2)C1=O (stereo not shown) | < 5 | 
35 | CN1C(=N)NC(C)(c2ccnc(-c3cc(Cl)cc(Cl)c3)c2)C1=O (stereo not shown) | < 5 | 
36 | CN1OCC(C)(c2cccc(-c3cccc(Cl)c3)c2)NC1=N (stereo not shown) | < 5 | 
37 | CN1OCC(C)(c2cccc(-c3cc(Cl)cc(Cl)c3)c2)NC1=N (stereo not shown) | < 5 | 
38 | Cc1c(-c2ccc(F)c(C#N)c2)sc([C@@]2(C)CC(=O)N(C)C(=N)N2)c1Cl | < 5 | 
39 | CN1C(=N)NC(c2ccccc2)(c2cc(-c3ccc4c(c3)OCO4)cs2)C1=O (stereo not shown) | < 5 | 
40 | CN1C(=N)NC(C)(c2ccc(C#N)s2)C(c2ccc(Cl)c(Cl)c2)C1=O (stereo not shown) | < 5 | 
41 | CN1C(=N)N[C@](C)(c2ccc3scc(-c4ccc(C#N)s4)c3c2)CC1=O | < 5 | 
42 | COc1cc(-c2cccc([C@@]3(C4CC4)NC(=N)N(C)C3=O)c2)ccc1O | < 5 | 
43 | CN1C(=N)N[C@](C)(c2cc(-c3cccnc3F)cs2)[C@@H](C2CC2)C1=O | < 5 | 
44 | CC[C@H]1C(=O)N(C)C(=N)N[C@]1(C)c1cccc(-c2cccc(OC)c2)c1 | < 5 | 
45 | CN1C(=N)N[C@](CCC2CCCCC2)(C[C@H]2CCC[C@H](N3CC[C@H](O)C3)C2)C1=O | < 5 | 
46 | CN1C(=N)N[C@](C)(c2c(F)cc(F)cc2F)[C@@H](c2ccc(C(C)(F)F)cc2)C1=O | < 5 | 
47 | CCC1(c2cc(-c3cccnc3)cs2)CC(=O)N(C)C(=N)N1 (stereo not shown) | < 5 | 
48 | CCc1cccc(-n2cc([C@]3(C)CC(=O)N(C)C(=N)N3)cn2)c1 | < 5 | 
49 | CN1C(=N)N[C@](C)(c2ccc3c(cnn3CC3CCCC3)c2)CC1=O | < 5 | 
50 | CN1C(=N)N[C@](C)(c2cccc(-c3cccnc3F)c2)CC1=O | < 5 | 

Row | Structure (SMILES) | Ki (read-out: BACE-1 Ki) [µM] | Ki [µM]
51 | CN1C(=N)N[C@](C)(c2cc(-c3cncc(Cl)n3)cs2)CC1=O | < 5 | 
52 | CN1C(=N)N[C@](C)(c2ncc(-c3cccc(Br)c3)s2)CC1=O | < 5 | 
53 | CCc1cccc(-c2cc([C@]3(C)CC(=O)N(C)C(=N)N3)nn2C)c1 | < 5 | 
54 | CN1C(=N)N[C@](C)(c2cc3cccc(Br)c3s2)CC1=O | < 5 | 
55 | C[C@H]1C(=O)N(C)C(=N)N[C@]1(C)c1cc2ccccc2s1 | < 5 | 
56 | N=C1NC(c2ccccc2)(c2ccccc2)C(=O)N1Cc1cccc(NC(=O)C2CCCCC2)c1 | < 5 | 
57 | N=C1NC(c2ccccc2)(c2ccccc2)C(=O)N1Cc1cccc(NS(=O)(=O)C2CC2)c1 | < 5 | 
58 | CCCS(=O)(=O)Nc1cccc(CN2C(=N)NC(c3ccccc3)(c3ccccc3)C2=O)c1 | < 5 | 
59 | CS(=O)(=O)Nc1cccc(CN2C(=N)NC(c3ccccc3)(c3ccccc3)C2=O)c1 | < 5 | 
60 | CCS(=O)(=O)Nc1cccc(CN2C(=N)NC(c3ccccc3)(c3ccccc3)C2=O)c1 | < 5 | 
61 | CN(c1cccc(CN2C(=N)NC(c3ccccc3)(c3ccccc3)C2=O)c1)S(C)(=O)=O | < 5 | 
62 | CN1C(=N)N[C@](CCc2ccccc2)(C[C@H]2CCC[C@@H](NC(=O)c3cccnc3)C2)C1=O | < 5 | 
63 | CN1C(=N)N[C@](CCC2CCCCC2)(C[C@H]2CCC[C@@H](NC(=O)c3ccccn3)C2)C1=O | < 5 | 
64 | CN1C(=N)N[C@](CCC2CCCCC2)(C[C@H]2CCC[C@@H](NC(=O)C3CCCC3)C2)C1=O | < 5 | 
65 | CN1C(=N)N[C@](CCC2CCCCC2)(C[C@H]2CCC[C@@H](NC(=O)Cc3ccc4ccccc4c3)C2)C1=O | < 5 | 
66 | CN1C(=N)N[C@](CCC2CCCCC2)(C[C@H]2CCC[C@@H](NC(=O)NC(=O)c3ccccc3)C2)C1=O | < 5 | 
67 | N=C1NC(c2ccccc2)(c2ccccc2)C(=O)N1C[C@H]1CCCN(C(=O)C2CC2)C1 | < 5 | 
68 | CCCC(=O)N1CCC[C@@H](CN2C(=N)NC(c3ccccc3)(c3ccccc3)C2=O)C1 | < 5 | 
69 | CCCS(=O)(=O)N1CCC[C@H](CN2C(=N)NC(c3ccccc3)(c3ccccc3)C2=O)C1 | < 5 | 
70 | N=C1NC(c2ccccc2)(c2ccccc2)C(=O)N1CC1CCN(C(=O)Cc2cccnc2)CC1 | < 5 | 
71 | CC(C)Oc1cccc(-c2csc([C@]3(C)CC(=O)N(C)C(=N)N3)c2)c1 | < 5 | 
72 | CSc1cccc(-c2csc([C@]3(C)CC(=O)N(C)C(=N)N3)c2)c1 | < 5 | 
73 | CN1C(=N)N[C@](C)(c2csc3c(-c4ccsc4)cccc23)CC1=O | < 5 | 
